Experimental data taken from the supplement of paper PMC11451515.

Tested on: SEM cells
Experiment: cell viability relative to DMSO control; higher = less cytotoxic
Details: 48 h
Procedure, shortened: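 In 1536-well plates, 5 μl of leukemia cells were seeded per well: 500 cells/well for NOMO1 or SEM and 1000 cells/well for P12-Ichikawa. Each line had first been adapted for at least four passages in each medium. Library compounds in DMSO were pin-dosed at 11 threefold concentrations between 47 μM and 0.79 nM, and CellTiter-Glo One luminescence was read after 48 h at 37°C. Viability is a per-plate percentage relative to DMSO wells, with cell-free wells as background.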

[1] = HPLM + 10% dialyzed FBS, 0.000781 µM
[2] = HPLM + 10% dialyzed FBS, 0.00234 µM
[3] = HPLM + 10% dialyzed FBS, 0.00702 µM
[4] = HPLM + 10% dialyzed FBS, 0.0211 µM
[5] = HPLM + 10% dialyzed FBS, 0.0632 µM
[6] = HPLM + 10% dialyzed FBS, 0.19 µM
[7] = HPLM + 10% dialyzed FBS, 0.569 µM
[8] = HPLM + 10% dialyzed FBS, 1.71 µM
[9] = HPLM + 10% dialyzed FBS, 5.12 µM
[10] = HPLM + 10% dialyzed FBS, 15.4 µM
[11] = HPLM + 10% dialyzed FBS, 46.1 µM
[12] = RPMI 5 mM glucose + 10% FBS, 0.000781 µM
[13] = RPMI 5 mM glucose + 10% FBS, 0.00234 µM
[14] = RPMI 5 mM glucose + 10% FBS, 0.00702 µM
[15] = RPMI 5 mM glucose + 10% FBS, 0.0211 µM
[16] = RPMI 5 mM glucose + 10% FBS, 0.0632 µM
[17] = RPMI 5 mM glucose + 10% FBS, 0.19 µM
[18] = RPMI 5 mM glucose + 10% FBS, 0.569 µM
[19] = RPMI 5 mM glucose + 10% FBS, 1.71 µM
[20] = RPMI 5 mM glucose + 10% FBS, 5.12 µM
[21] = RPMI 5 mM glucose + 10% FBS, 15.4 µM
[22] = RPMI 5 mM glucose + 10% FBS, 46.1 µM
[23] = RPMI 5 mM glucose + 10% dialyzed FBS, 0.000781 µM
[24] = RPMI 5 mM glucose + 10% dialyzed FBS, 0.00234 µM
[25] = RPMI 5 mM glucose + 10% dialyzed FBS, 0.00702 µM
[26] = RPMI 5 mM glucose + 10% dialyzed FBS, 0.0211 µM
[27] = RPMI 5 mM glucose + 10% dialyzed FBS, 0.0632 µM
[28] = RPMI 5 mM glucose + 10% dialyzed FBS, 0.19 µM
[29] = RPMI 5 mM glucose + 10% dialyzed FBS, 0.569 µM
[30] = RPMI 5 mM glucose + 10% dialyzed FBS, 1.71 µM
[31] = RPMI 5 mM glucose + 10% dialyzed FBS, 5.12 µM
[32] = RPMI 5 mM glucose + 10% dialyzed FBS, 15.4 µM
[33] = RPMI 5 mM glucose + 10% dialyzed FBS, 46.1 µM

COc1cc2ncn(-c3cc(OCc4ccccc4[S+](C)(=O)[O-])c(C#N)s3)c2cc1OC
cell viability [1]: 102% | cell viability [2]: 102% | cell viability [3]: 90.9% | cell viability [4]: 105% | cell viability [5]: 95.1% | cell viability [6]: 98.3% | cell viability [7]: 98.3% | cell viability [8]: 103% | cell viability [9]: 78.5% | cell viability [10]: 95.7% | cell viability [11]: 82.4% | cell viability [12]: 114% | cell viability [13]: 110% | cell viability [14]: 100% | cell viability [15]: 124% | cell viability [16]: 121% | cell viability [17]: 110% | cell viability [18]: 108% | cell viability [19]: 107% | cell viability [20]: 94.4% | cell viability [21]: 122% | cell viability [22]: 93.4% | cell viability [23]: 92.4% | cell viability [24]: 107% | cell viability [25]: 89.1% | cell viability [26]: 103% | cell viability [27]: 98.9% | cell viability [28]: 110% | cell viability [29]: 112% | cell viability [30]: 101% | cell viability [31]: 106% | cell viability [32]: 98.7% | cell viability [33]: 78.9%

COc1ccc(C(CN(C)C)C2(O)CCCCC2)cc1 (configuration not stated)
cell viability [1]: 83.7% | cell viability [2]: 134% | cell viability [3]: 106% | cell viability [4]: 134% | cell viability [5]: 124% | cell viability [6]: 118% | cell viability [7]: 106% | cell viability [8]: 107% | cell viability [9]: 117% | cell viability [10]: 116% | cell viability [11]: 104% | cell viability [12]: 78.5% | cell viability [13]: 132% | cell viability [14]: 122% | cell viability [15]: 110% | cell viability [16]: 124% | cell viability [17]: 125% | cell viability [18]: 103% | cell viability [19]: 112% | cell viability [20]: 119% | cell viability [21]: 120% | cell viability [22]: 95.9% | cell viability [23]: 64.9% | cell viability [24]: 120% | cell viability [25]: 122% | cell viability [26]: 134% | cell viability [27]: 163% | cell viability [28]: 138% | cell viability [29]: 115% | cell viability [30]: 122% | cell viability [31]: 148% | cell viability [32]: 118% | cell viability [33]: 135%

C=C1C(=O)[C@@]23C(CC[C@@H]1[C@H]2O)[C@@]12CO[C@]3(O)[C@@H](O)[C@@H]1C(C)(C)CC[C@@H]2O (some centres not stated)
cell viability [1]: 102% | cell viability [2]: 96.9% | cell viability [3]: 109% | cell viability [4]: 113% | cell viability [5]: 119% | cell viability [6]: 103% | cell viability [7]: 98.5% | cell viability [8]: 103% | cell viability [9]: 70% | cell viability [10]: 20.5% | cell viability [11]: 3.53% | cell viability [12]: 106% | cell viability [13]: 86.9% | cell viability [14]: 107% | cell viability [15]: 101% | cell viability [16]: 104% | cell viability [17]: 102% | cell viability [18]: 86.7% | cell viability [19]: 67.7% | cell viability [20]: 37% | cell viability [21]: 4.45% | cell viability [22]: 2.3% | cell viability [23]: 105% | cell viability [24]: 7.74% | cell viability [25]: 99.2% | cell viability [26]: 109% | cell viability [27]: 113% | cell viability [28]: 107% | cell viability [29]: 92% | cell viability [30]: 97.3% | cell viability [31]: 49.3% | cell viability [32]: 9.6% | cell viability [33]: 2.85%

COc1ccc(OC)c(-c2nnc3ccc(-c4ccc(OC)c(O[C@@H]5CCOC5)c4)nn23)c1
cell viability [1]: 105% | cell viability [2]: 106% | cell viability [3]: 124% | cell viability [4]: 115% | cell viability [5]: 119% | cell viability [6]: 127% | cell viability [7]: 125% | cell viability [8]: 123% | cell viability [9]: 134% | cell viability [10]: 119% | cell viability [11]: 86.4% | cell viability [23]: 103% | cell viability [24]: 109% | cell viability [25]: 117% | cell viability [26]: 115% | cell viability [27]: 116% | cell viability [28]: 112% | cell viability [29]: 123% | cell viability [30]: 131% | cell viability [31]: 117% | cell viability [32]: 122% | cell viability [33]: 89.7%

C=C1C(=O)OC(CCCCCCCC)C1C(=O)O (configuration not stated)
cell viability [1]: 97.2% | cell viability [2]: 108% | cell viability [3]: 106% | cell viability [4]: 118% | cell viability [5]: 108% | cell viability [6]: 105% | cell viability [7]: 111% | cell viability [8]: 107% | cell viability [9]: 90.6% | cell viability [10]: 125% | cell viability [11]: 113% | cell viability [12]: 97.5% | cell viability [13]: 99.9% | cell viability [14]: 111% | cell viability [15]: 106% | cell viability [16]: 102% | cell viability [17]: 119% | cell viability [18]: 108% | cell viability [19]: 113% | cell viability [20]: 14.1% | cell viability [21]: 125% | cell viability [22]: 113% | cell viability [23]: 111% | cell viability [24]: 98.2% | cell viability [25]: 111% | cell viability [26]: 126% | cell viability [27]: 120% | cell viability [28]: 128% | cell viability [29]: 125% | cell viability [30]: 117% | cell viability [31]: 84.3% | cell viability [32]: 121% | cell viability [33]: 121%

N[C@H]2CN(CC12CC1)c3c(F)cc4c(c3Cl)[N@@](C=C(C4=O)C(=O)O)C5C[C@H]5F (some centres not stated)
cell viability [1]: 90.7% | cell viability [2]: 93.2% | cell viability [3]: 89.9% | cell viability [4]: 88.9% | cell viability [5]: 92.2% | cell viability [6]: 86.4% | cell viability [7]: 84.3% | cell viability [8]: 84.7% | cell viability [9]: 90.5% | cell viability [10]: 60.6% | cell viability [11]: 84.6% | cell viability [12]: 107% | cell viability [13]: 126% | cell viability [14]: 112% | cell viability [15]: 119% | cell viability [16]: 103% | cell viability [17]: 136% | cell viability [18]: 73.2% | cell viability [19]: 113% | cell viability [20]: 103% | cell viability [21]: 74.6% | cell viability [22]: 95.4% | cell viability [23]: 71.1% | cell viability [24]: 83% | cell viability [25]: 92.4% | cell viability [26]: 83.8% | cell viability [27]: 92.2% | cell viability [28]: 92.5% | cell viability [29]: 75.6% | cell viability [30]: 98.6% | cell viability [31]: 91% | cell viability [32]: 50.1% | cell viability [33]: 78.7%

O=C(CCCCCCC(=O)Nc1ccc([C@H]2O[C@@H](CSc3nc(-c4ccccc4)c(-c4ccccc4)o3)C[C@@H](c3ccc(CO)cc3)O2)cc1)NO
cell viability [12]: 109% | cell viability [13]: 124% | cell viability [14]: 128% | cell viability [15]: 134% | cell viability [16]: 121% | cell viability [17]: 112% | cell viability [18]: 115% | cell viability [19]: 114% | cell viability [20]: 87.4% | cell viability [21]: 8.6% | cell viability [22]: 7.11% | cell viability [23]: 113% | cell viability [24]: 117% | cell viability [25]: 135% | cell viability [26]: 135% | cell viability [27]: 124% | cell viability [28]: 133% | cell viability [29]: 130% | cell viability [30]: 116% | cell viability [31]: 77.6% | cell viability [32]: 9.58% | cell viability [33]: 7.49%

O=C(CCCCCCC(=O)Nc1cccnc1)NO
cell viability [1]: 78.3% | cell viability [2]: 106% | cell viability [3]: 96.7% | cell viability [4]: 97.2% | cell viability [5]: 114% | cell viability [6]: 104% | cell viability [7]: 108% | cell viability [8]: 88.5% | cell viability [9]: 76.8% | cell viability [10]: 17.6% | cell viability [11]: 6.38% | cell viability [12]: 101% | cell viability [13]: 105% | cell viability [14]: 102% | cell viability [15]: 106% | cell viability [16]: 101% | cell viability [17]: 115% | cell viability [18]: 97.5% | cell viability [19]: 77.2% | cell viability [20]: 81.7% | cell viability [21]: 11.9% | cell viability [22]: 5.78% | cell viability [23]: 87.8% | cell viability [24]: 93.6% | cell viability [25]: 89.2% | cell viability [26]: 101% | cell viability [27]: 95.5% | cell viability [28]: 99% | cell viability [29]: 105% | cell viability [30]: 81.9% | cell viability [31]: 64% | cell viability [32]: 13.5% | cell viability [33]: 6.39%
